ChEMBL document CHEMBL4400564, “Structure-activity relationship studies of Bz amide-containing α-GalCer derivatives as natural killer T cell modulators” (Bioorg Med Chem Lett, 2019)
Calls of active or inactive are those of the source.

Key:
[1] = target: T1, Antigen-presenting glycoprotein CD1d1 (Mus musculus) (UniProt P11609); test: Binding affinity to Ig-tagged mouse CD1d assessed as increase in IL-2 production in NKT hybridoma cells exposed to 24 hrs pre-treated compound/CD1d mixture and measured after 48 hrs by ELISA based APC free assay; type: cell-based
T1 sequence (whole entry): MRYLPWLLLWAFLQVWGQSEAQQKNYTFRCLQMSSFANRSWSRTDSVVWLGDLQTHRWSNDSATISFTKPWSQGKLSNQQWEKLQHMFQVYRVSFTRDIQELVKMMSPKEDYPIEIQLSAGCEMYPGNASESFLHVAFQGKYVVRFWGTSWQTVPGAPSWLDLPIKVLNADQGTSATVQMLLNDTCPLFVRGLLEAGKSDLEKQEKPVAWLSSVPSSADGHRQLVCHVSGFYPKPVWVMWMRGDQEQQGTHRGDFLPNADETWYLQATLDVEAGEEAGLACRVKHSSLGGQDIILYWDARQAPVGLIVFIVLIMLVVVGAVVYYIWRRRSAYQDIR

Splenocyte [2] = test: Reduction of IFN-gamma production in C57BL/6J mouse splenocyte at 1 to 100 nM after 48 hrs by ELISA relative to alpha-GalCer; type: functional, cell-based
Splenocyte [3] = test: Induction of IL-4 production in C57BL/6J mouse splenocyte at 1 to 100 nM after 48 hrs by ELISA relative to alpha-GalCer; type: functional, cell-based

Measured: Activity

CCCCCCCCCCCCCC[C@@H](O)[C@@H](O)[C@H](CO[C@H]1O[C@H](CO)[C@H](O)[C@H](O)[C@H]1O)NC(=O)CCCCCCCCCCCNC(=O)C1CCNCC1
active: [1] Dose-dependent effect | Splenocyte [2] | Splenocyte [3]

CCCCCCCCCCCCCC[C@@H](O)[C@@H](O)[C@H](CO[C@H]1O[C@H](CO)[C@H](O)[C@H](O)[C@H]1O)NC(=O)CCCCCCCCCCCNC(=O)C(C)(C)C
active: [1] Dose-dependent effect | Splenocyte [2] | Splenocyte [3]

CCCCCCCCCCCCCC[C@@H](O)[C@@H](O)[C@H](CO[C@H]1O[C@H](CO)[C@H](O)[C@H](O)[C@H]1O)NC(=O)CCCCCCCCCCCNC(=O)c1ccc(OC)cc1
active: [1] Dose-dependent effect | Splenocyte [2] | Splenocyte [3]

CCCCCCCCCCCCCC[C@@H](O)[C@@H](O)[C@H](CO[C@H]1O[C@H](CO)[C@H](O)[C@H](O)[C@H]1O)NC(=O)CCCCCCCCCCCNC(=O)c1ccccc1OC
active: [1] Dose-dependent effect | Splenocyte [2] | Splenocyte [3]

CCCCCCCCCCCCCC[C@@H](O)[C@@H](O)[C@H](CO[C@H]1O[C@H](CO)[C@H](O)[C@H](O)[C@H]1O)NC(=O)CCCCCCCCCCCNC(=O)C1CCCCC1
active: [1] Dose-dependent effect | Splenocyte [2] | Splenocyte [3]

CCCCCCCCCCCCCC[C@@H](O)[C@@H](O)[C@H](CO[C@H]1O[C@H](CO)[C@H](O)[C@H](O)[C@H]1O)NC(=O)CCCCCCCCCCCNC(=O)c1ccccc1F
active: [1] Dose-dependent effect | Splenocyte [2] | Splenocyte [3]

CCCCCCCCCCCCCC[C@@H](O)[C@@H](O)[C@H](CO[C@H]1O[C@H](CO)[C@H](O)[C@H](O)[C@H]1O)NC(=O)CCCCCCCCCCCNC(=O)c1ccccc1
active: [1] Dose-dependent effect | Splenocyte [2] | Splenocyte [3]

CCCCCCCCCCCCCC[C@@H](O)[C@@H](O)[C@H](CO[C@H]1O[C@H](CO)[C@H](O)[C@H](O)[C@H]1O)NC(=O)CCCCCCCCCCCNC(=O)c1cccc(OC)c1
active: [1] Dose-dependent effect | Splenocyte [2] | Splenocyte [3]

CCCCCCCCCCCCCC[C@@H](O)[C@@H](O)[C@H](CO[C@H]1O[C@H](CO)[C@H](O)[C@H](O)[C@H]1O)NC(=O)CCCCCCCCCCCNC(=O)c1cccc(F)c1
active: [1] Dose-dependent effect | Splenocyte [2] | Splenocyte [3]

CCCCCCCCCCCCCC[C@@H](O)[C@@H](O)[C@H](CO[C@H]1O[C@H](CO)[C@H](O)[C@H](O)[C@H]1O)NC(=O)CCCCCCCCCCCNC(=O)c1ccc(F)cc1
active: [1] Dose-dependent effect | Splenocyte [2] | Splenocyte [3]
